Assay results taken from patent publication EP0201094A2, “Thieno[2,3-d]imidazole derivatives and process for their preparation” (Hafslund Nycomed Pharma Aktiengesellschaft, priority 1985, dated 1986).

System: Magensekretion
Experiment: Gastric secretion in pylorus-ligated conscious female rats after oral dosing
Format: in vivo, Ratten (Stamm: Charles River CD)
Details: for Säure gesamt / Säurekonzentration / Menge: pylorus ligation 60 min after dosing; for Säure gesamt / Säurekonzentration: measured 4 h after ligation; for Menge: stomach content measured 4 h after ligation; for Hemmung der Magensekretion: result in words, increasing oral doses of 125, 250 and 500 µmol/kg
Method: Die Substanzen wurden in 20 %-igem Dimethylsulfoxid gelöst und wachen weiblichen Ratten - (Stamm: Charles River CD) in ansteigenden Dosen von 125, 250 und 500 µmol/kg mit dem einheitlichen Dosierungsvolumen von 20 ml/kg oral appliziert. 60 Minuten später wurden die Tiere einer Pylorusligatur unterzogen. 4 Stunden nach Setzen der Pylorusligatur wurde die Säurekonzentration und der Gesamtsäuregehalt im Magenvolumen der Tiere bestimmt. Die Kontrollgruppe erhielt 20 ml/kg Dimethylsulfoxid bzw. 20 ml/kg destilliertes Wasser.

Structure (SMILES) | Säure gesamt (125 µmol/kg oral) | Säurekonzentration (125 µmol/kg oral) | Menge (125 µmol/kg oral) | Säure gesamt (250 µmol/kg oral) | Säurekonzentration (250 µmol/kg oral) | Menge (250 µmol/kg oral) | Säure gesamt (500 µmol/kg oral) | Säurekonzentration (500 µmol/kg oral) | Menge (500 µmol/kg oral) | Hemmung der Magensekretion
COc1c(C)cnc(C[S+]([O-])c2nc3cc(C(C)=O)sc3[nH]2)c1C (centres unmarked) [Verbindung A, 5-Acetyl-2-((4-methoxy-3,5-dimethyl-2-pyridyl)-methylsulfinyl)-3H-thieno(2,3-d)imidazol] | 0.37±0.06 mÄq | 0.08±0.008 mÄq/ml | 4.7 ± 0.4 mL | 0.16±0.03 mÄq | 0.04±0.006 mÄq/ml | 3.4 ± 0.3 mL | 0.13±0.03 mÄq | 0.04±0.005 mÄq/ml | 3.1 ± 0.4 mL | signifikante, dosisabhängige Hemmung der Magensekretion
COc1ccnc(C[S+]([O-])c2nc3ccsc3[nH]2)c1 (centres unmarked) [Verbindung B] | 0.37±0.07 mÄq | 0.08±0.007 mÄq/ml | 4.5 ± 0.6 mL | 0.27±0.05 mÄq | 0.05±0.004 mÄq/ml | 5.0 ± 0.6 mL | 0.14±0.02 mÄq | 0.03±0.004 mÄq/ml | 4.5 ± 0.4 mL | signifikante, dosisabhängige Hemmung der Magensekretion
